What all share (assay type): cell-based
Assay [1] relates to S. aureus (ATCC 29213). In words: Antibacterial susceptibility testing (MIC, broth microdilution or agar dilution), S. aureus. In short, it runs like this:
(§1)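 MICs by CLSI (M7-A7) broth microdilution or agar dilution, against reference ATCC strains as listed.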

Assay [2] deals with E. faecalis (ATCC 29212). In words: Antibacterial susceptibility testing (MIC, broth microdilution or agar dilution), E. faecalis. The procedure: (§2) Compounds of the invention were tested for antimicrobial activity by susceptibility testing in liquid or on solid media. MICs for compounds against each strain were determined by the broth microdilution or agar dilution method according to the guidelines of the Clinical Laboratories and Standards Institute, formerly the National Committee for Clinical Laboratory Standards (Clinical Laboratories and Standards Institute. Methods for Dilution Antimicrobial Susceptibility Tests for Bacteria That Grow Aerobically; Approved Standard—Seventh Edition. Document M7-A7. CLSI, Wayne, Pa., 2006; Clinical Laboratories and Standards Institute. The Gram positive bacterial strains tested include S. aureus (Staphylococcus aureus (Isolate ID ATCC 29213)), E. faecalis (Enterococcus faecalis (Isolate ID ATCC 29212)) and S. pyogenes (Streptococcus pyogenes (Isolate ID ATCC 51339)). The Gram negative bacterial strains tested include H. influenzae (Haemophilus influenzae (Isolate ID ATCC 49247)).
A general note: In broth dilution the organism is exposed to a series of concentrations in liquid medium.

Assay [3] has as its system S. pyogenes (ATCC 51339). In words: Antibacterial susceptibility testing (MIC, broth microdilution or agar dilution), S. pyogenes. As to conditions: Streptococcus pyogenes, ATCC51339; read-out: S. pyogenes (ATCC 51339) minimal inhibitory concentration (MIC). The procedure, abridged:
as §1

In assay [4] the test system is H. influenzae (ATCC 49247). The experiment in a line: Antibacterial susceptibility testing (MIC, broth microdilution or agar dilution), H. influenzae. The following applies: Haemophilus influenzae, ATCC49247; read-out: H. influenzae (ATCC 49247) minimal inhibitory concentration (MIC). The procedure: as §2
[5] abbreviates: Staphylococcus aureus, ATCC29213; read-out: S. aureus (ATCC 29213) minimal inhibitory concentration (MIC).
Where [6] appears, read: Enterococcus faecalis, ATCC29212; read-out: E. faecalis (ATCC 29212) minimal inhibitory concentration (MIC).

This is an account of results in US9060515B2, “Heterocyclic urea compounds” (BIOTA EUROPE LTD, priority 2011, dated 2015).

Converted amounts (≈) assume the structure as drawn. Where two headings read alike, the source gives them in different places.

Regarding `CCNC(=O)Nc1cc(Nc2ccc(F)cc2)c(C(=O)Nc2ccc(CN3CCOCC3)cc2)cn1` [Compound 201, 6-[(ethylcarbamoyl)amino]-4-[(4-fluorophenyl)amino]-N-[4-(morpholin-4-ylmethyl)phenyl]pyridine-3-carboxamide], the MIC was 2 µg/mL (≈ 4.06 µM) in assay [1] (setting [5]) and no more than 1 µg/mL in assay [2] (setting [6]).
Take `CCNC(=O)Nc1cc(Nc2ccccc2)c(C(=O)NCc2cccnc2)cn1` [Compound 28, 6-(3-ethylureido)-4-(phenylamino)-N-(pyridin-3-ylmethyl)nicotinamide]: the MIC in assay [2] (setting [6]) and in assay [3] was no more than 1 µg/mL each time.
Consider `CCNC(=O)Nc1cc(Nc2cccc(C)c2)c(C(=O)Nc2cccc(C)c2)cn1` [Compound 1, 6-(3-ethylureido)-N-m-tolyl-4-(m-tolylamino)nicotinamide], for which the MIC in assay [1] (setting [5]) is 2 µg/mL (≈ 4.96 µM); in assay [2] (setting [6]), no more than 1 µg/mL; in assay [3], 16 µg/mL (≈ 39.7 µM).
Consider `CCNC(=O)Nc1cc(Nc2ccccc2)c(C(=O)Nc2cccc(Cl)c2)cn1` [Compound 4], for which the MIC in assay [1] (setting [5]) is no more than 1 µg/mL; in assay [2] (setting [6]) it was no more than 1 µg/mL; in assay [3], 4 µg/mL (≈ 9.76 µM).
As to `CCNC(=O)Nc1cc(NCc2cccnc2)c(C(=O)Nc2cccnc2)cn1` [Compound 26, 6-(3-ethylureido)-N-(pyridin-3-yl)-4-(pyridin-3-ylmethylamino)nicotinamide], the MIC in assay [2] (setting [6]) and in assay [3] was 8 µg/mL (≈ 20.4 µM) throughout.
On to `CCNC(=O)Nc1cc(Nc2ccccc2)c(C(=O)Nc2ccc(NC(C)=O)nc2)cn1` [Compound 24, N-(6-acetamidopyridin-3-yl)-6-(3-ethylureido)-4-(phenylamino)nicotinamide], for which the MIC was 2 µg/mL (≈ 4.61 µM) in assay [1] (setting [5]), no more than 1 µg/mL in assay [2] (setting [6]) and no more than 1 µg/mL in assay [3].
`CCNC(=O)Nc1cc(NCc2cccnc2)c(C(=O)Nc2ccccc2)cn1` [Compound 25, 6-(3-ethylureido)-N-phenyl-4-(pyridin-3-ylmethylamino)nicotinamide]: the MIC came to 2 µg/mL (≈ 5.12 µM) in assay [2] (setting [6]) and 8 µg/mL (≈ 20.5 µM) in assay [3].
For the molecule `CCNC(=O)Nc1cc(Nc2ccc(Cl)cc2)c(C(=O)Nc2ccc(CCC(=O)OC)cc2)cn1` [Compound 148, methyl 3-{4-[({4-[(4-chlorophenyl)amino]-6-[(ethylcarbamoyl)amino]pyridin-3-yl}carbonyl)amino]phenyl}propanoate], the MIC in assay [4] was 4 µg/mL (≈ 8.07 µM); in assay [1] (setting [5]), no more than 1 µg/mL.
With `CCNC(=O)Nc1cc(Nc2ccccc2)c(C(=O)Nc2ccc(CP(=O)(OCC)OCC)cc2)cn1` [Compound 206], the MIC in assay [1] (Staphylococcus aureus, ATCC29213, read-out: S. aureus (ATCC 29213) minimal inhibitory concentration (MIC)) was no more than 1 µg/mL; in assay [2] (Enterococcus faecalis, ATCC29212, read-out: E. faecalis (ATCC 29212) minimal inhibitory concentration (MIC)) it was no more than 1 µg/mL.
Regarding `CCNC(=O)Nc1cc(Nc2ccccc2)c(C(=O)Nc2ccc(CN3CCS(=O)(=O)CC3)cc2)cn1` [Compound 214, N-{4-[(1,1-dioxidothiomorpholin-4-yl)methyl]phenyl}-6-[(ethylcarbamoyl)amino]-4-(phenylamino)pyridine-3-carboxamide], the MIC in assay [1] (setting [5]) is 4 µg/mL (≈ 7.65 µM); in assay [2] (setting [6]) it was no more than 1 µg/mL.
The corresponding values for `CCNC(=O)Nc1cc(Nc2ccc(C#N)cc2)c(C(=O)Nc2ccc(CN3CCN(C)CC3)cc2)cn1` [Compound 205, 4-[(4-cyanophenyl)amino]-6-[(ethylcarbamoyl)amino]-N-{4-[(4-methylpiperazin-1-yl)methyl]phenyl}pyridine-3-carboxamide] are 2 µg/mL (≈ 3.9 µM) and no more than 1 µg/mL.
Take `CCNC(=O)Nc1cc(Nc2ccccc2)c(C(=O)Nc2ccc(N3CCOCC3)nc2)cn1` [Compound 23, 6-(3-ethylureido)-N-(6-morpholinopyridin-3-yl)-4-(phenylamino)nicotinamide]: the values for the MIC in assay [1] (setting [5]), in assay [2] (setting [6]) and in assay [3] were 2 µg/mL (≈ 4.33 µM), no more than 1 µg/mL and no more than 1 µg/mL, respectively.
As to `CCNC(=O)Nc1cc(Nc2ccccc2)c(C(=O)Nc2cccc(C)c2)cn1` [Compound 18, 6-(3-ethylureido)-4-(phenylamino)-N-m-tolylnicotinamide], the MIC in assay [1] (setting [5]) was no more than 1 µg/mL; in assay [2] (setting [6]), no more than 1 µg/mL; in assay [3] it was 2 µg/mL (≈ 5.14 µM).
On to `CCNC(=O)Nc1cc(Nc2ccc(F)c(F)c2)c(C(=O)Nc2ccc(CCC(=O)OCC)cc2)cn1` [Compound 215, ethyl 3-{4-[({4-[(3,4-difluorophenyl)amino]-6-[(ethylcarbamoyl)amino]pyridin-3-yl}carbonyl)amino]phenyl}propanoate], for which the MIC in assay [1] (setting [5]) and in assay [2] (setting [6]) was no more than 1 µg/mL in each case.
As for `CCNC(=O)Nc1cc(Nc2cccnc2)c(C(=O)Nc2ccccc2)cn1` [Compound 13, 6-(3-ethylureido)-N-phenyl-4-(pyridin-3-ylamino)nicotinamide], the MIC in assay [1] (setting [5]), in assay [2] (setting [6]) and in assay [3] was no more than 1 µg/mL in each case.
On to `CCNC(=O)Nc1cc(Nc2ccccc2)c(C(=O)Nc2ccc(C(=O)NC)cc2)cn1` [Compound 213, 6-[(ethylcarbamoyl)amino]-N-[4-(methylcarbamoyl)phenyl]-4-(phenylamino)pyridine-3-carboxamide], for which the values for the MIC in assay [1] (setting [5]) and in assay [2] (setting [6]) were 4 µg/mL (≈ 9.25 µM) and no more than 1 µg/mL, respectively.
As for `CCNC(=O)Nc1cc(Nc2ccccc2)c(C(=O)Nc2ccccc2)cn1` [Compound 17, 6-(3-ethylureido)-N-phenyl-4-(phenylamino)nicotinamide], the MIC was no more than 1 µg/mL in assay [1] (setting [5]), no more than 1 µg/mL in assay [2] (setting [6]) and 2 µg/mL (≈ 5.33 µM) in assay [3].
For `CCNC(=O)Nc1cc(Nc2ccc(F)cc2)c(C(=O)Nc2ccc(CN3CCCC3)cc2)cn1` [Compound 200, 6-[(ethylcarbamoyl)amino]-4-[(4-fluorophenyl)amino]-N-[4-(pyrrolidin-1-ylmethyl)phenyl]pyridine-3-carboxamide], the MIC in assay [1] (setting [5]) turned out to be 8 µg/mL (≈ 16.8 µM); in assay [2] (setting [6]), 2 µg/mL (≈ 4.2 µM).
The corresponding values for `CCNC(=O)Nc1cc(Nc2ccc(F)c(Cl)c2)c(C(=O)Nc2ccc(CCC(=O)OCC)cc2)cn1` [Compound 226, ethyl 3-{4-[({4-[(3-chloro-4-fluorophenyl)amino]-6-[(ethylcarbamoyl)amino]pyridin-3-yl}carbonyl)amino]phenyl}propanoate] are 2 µg/mL (≈ 3.79 µM) and no more than 1 µg/mL.
Regarding `CCNC(=O)Nc1cc(Nc2ccccc2)c(C(=O)Nc2cccnc2)cn1` [Compound 20, 6-(3-ethylureido)-4-(phenylamino)-N-(pyridin-3-yl)nicotinamide], the MIC in assay [1] (setting [5]), in assay [2] (setting [6]) and in assay [3] was no more than 1 µg/mL throughout.
For the molecule `CCNC(=O)Nc1cc(Nc2cccnc2)c(C(=O)Nc2cccnc2)cn1` [Compound 19, 6-(3-ethylureido)-N-(pyridin-3-yl)-4-(pyridin-3-ylamino)nicotinamide], the values for the MIC in assay [1] (setting [5]), in assay [2] (setting [6]) and in assay [3] were 8 µg/mL (≈ 21.2 µM), no more than 1 µg/mL and no more than 1 µg/mL, respectively.
As for `CCNC(=O)Nc1cc(Nc2cccc(F)c2)c(C(=O)Nc2ccc(CCC(=O)OCC)cc2)cn1` [Compound 216, ethyl 3-{4-[({6-[(ethylcarbamoyl)amino]-4-[(3-fluorophenyl)amino]pyridin-3-yl}carbonyl)amino]phenyl}propanoate], the MIC in assay [2] (setting [6]) is no more than 1 µg/mL.
The same measure, in the same setting: to `CCNC(=O)Nc1cc(Nc2ccccc2)c(C(=O)Nc2ccc(-n3cncn3)nc2)cn1` [Compound 27, N-(6-(1H-1,2,4-triazol-1-yl)pyridin-3-yl)-6-(3-ethylureido)-4-(phenylamino)nicotinamide] belongs no more than 1 µg/mL; to `CCNC(=O)Nc1cc(Nc2ccc(F)cc2F)c(C(=O)Nc2ccc(CCC(=O)OCC)cc2)cn1` [Compound 227], no more than 1 µg/mL.
As to `CCNC(=O)Nc1cc(Nc2cc(Cl)cc(Cl)c2)c(C(=O)Nc2ccc(CCC(=O)OCC)cc2)cn1` [Compound 225, ethyl 3-{4-[({4-[(3,5-dichlorophenyl)amino]-6-[(ethylcarbamoyl)amino]pyridin-3-yl}carbonyl)amino]phenyl}propanoate], the MIC was 4 µg/mL (≈ 7.35 µM) in assay [1] (setting [5]) and no more than 1 µg/mL in assay [2] (setting [6]).
For the molecule `CCNC(=O)Nc1cc(Nc2ccccc2)c(C(=O)Nc2ccnc(C(=O)OC)c2)cn1` [Compound 21, methyl 4-(6-(3-ethylureido)-4-(phenylamino)nicotinamido)picolinate], the MIC in assay [2] (setting [6]) is no more than 1 µg/mL.
Consider `CCNC(=O)Nc1cc(Nc2ccc(C#N)cc2)c(C(=O)Nc2ccc(CN3CCCC3)cc2)cn1` [Compound 203, 4-[(4-cyanophenyl)amino]-6-[(ethylcarbamoyl)amino]-N-[4-(pyrrolidin-1-ylmethyl)phenyl]pyridine-3-carboxamide], for which the MIC in assay [1] (setting [5]) is 2 µg/mL (≈ 4.14 µM); in assay [2] (setting [6]), no more than 1 µg/mL.
In the case of `CCNC(=O)Nc1cc(Nc2ccc(F)cc2)c(C(=O)Nc2ccc(CN3CCN(C)CC3)cc2)cn1` [Compound 202, 6-[(ethylcarbamoyl)amino]-4-[(4-fluorophenyl)amino]-N-{4-[(4-methylpiperazin-1-yl)methyl]phenyl}pyridine-3-carboxamide], the MIC was 8 µg/mL (≈ 15.8 µM) in assay [1] (setting [5]) and 2 µg/mL (≈ 3.96 µM) in assay [2] (setting [6]).
With `CCNC(=O)Nc1cc(Nc2ccccc2)c(C(=O)Nc2ccc([C@@H]3C[C@H]3C(=O)OCC)cc2)cn1` [Compound 180], the MIC in assay [4] was found to be 2 µg/mL (≈ 4.1 µM).
